Measured values as given in patent US8546421B1, “Oncogenic-RAS-signal dependent lethal compounds” (The Trustees of Columbia University in the City of New York, priority 2007, dated 2013).

Experiments:
MOLT-4 = experiment: NCI60 anti-cancer screening; settings: for GI50 / CC50: Homo sapiens; for GI50 / GI 100%: MOLT-4; for CC50: MOLT-4, read-out: LC 50%; for GI 100%: Leukemia
[1] = system: BJ-TERT/LT/ST/RAS^V12 cells; experiment: Counter screening with biologically active compounds; type: cell-based, human; settings: for biologically active compounds that suppress compound-induced cell death: 36 bioactive compounds of Table 1, 24 hours, alamar blue; for effect of MEK1/2 inhibitor (U0126) on compound-induced cell death: U0126 10 uM
Description: Biologically active compounds listed in Table 1 were dissolved in BJ medium at 10× final concentration and aliquoted into eppendorf tubes. 100 μL of each 10× solution was transferred to column 1 to column 12 or column 13 to column 24 of a single row in a 384-well daughter plate. This plate was designated as ‘10× biologically active plate’. In order to prepare lethal compound solution, Erastin and compounds 3, 6, 27, and 36 were dissolved in BJ medium at a concentration of 100 μg/mL, 400 μg/mL, 400 μg/mL, 100 μg/mL, and 200 μg/mL, respectively. Empty daughter plates were filled with 50 μL BJ media except for columns 5 and 13 where 100 μL of each lethal solution was transferred. After lethal solution transfer, 2-fold dilution series across columns 5 to 12 and columns 13 to 20 was made by transferring 50 μL compound solution to the next column successively (8-point dilution series), with mixing. These five plates were each designated ‘10× lethal plate’. Five assay plates were prepared by seeding 4,000 BJ-TERT/LT/ST/RAS^V12 cells per well in 32 μL of growth media in black, clear bottom 384-well plates. Cells in assay plates were first treated with biologically active compounds by transferring 4 μL from the 10× inhibitor plate. Cells were then treated with each lethal compound in a 2-fold dilution series by transferring 4 μL solution from each 10× lethal plate. […] Percent growth inhibition (% GI) was calculated by the following formula using fluorescence intensity values: % GI=100*(1−(X−N)/([…])) wherein X is the fluorescent intensity value measured at 590 nm for cells treated with biologically active compound and lethal compound; N is the fluorescent intensity value measured at 590 nm for a control containing no cells (i.e. biologically active compound in growth media); and P is the fluorescent intensity value measured at 590 nm for a control containing no lethal compound (i.e., cells treated with biologically active compound). Counter Screening with Iron Chelators

SNB-75 = experiment: NCI60 anti-cancer screening; settings: for GI50 / CC50: Homo sapiens; for GI50 / GI 100%: SNB-75; for CC50: SNB-75, read-out: LC 50%; for GI 100%: CNS Cancer
SR = experiment: NCI60 anti-cancer screening; settings: for GI50 / CC50: Homo sapiens; for CC50: read-out: LC 50%; for GI 100%: Leukemia
[2] = system: BJ-TERT/LT/ST/RAS^V12 cells; experiment: Counter screening with iron chelators; type: cell-based, human; settings: DFOM and three additional iron-binding compounds; 24 hours
Description: Cells were treated with iron chelators by transferring 4 μL of 1 mM deferoxamine mesylate (Calbiochem, cat.#252750), 500 μM compound 1a (Chembridge, cat.#5175092), 1 mM compound 2 (Ryan Scientific, cat.#LT01784723), or 100 μM compound 311 (Chembridge, cat.#5135701) in growth media to the assay plate. Then, 4 μL was transferred from the ‘10× lethal plate’ (described in ‘counter screening with biologically active compounds’) to the assay plate in order to induce cell death. Assay plates were incubated for 24 hours and alamar blue was added to the plates at a final concentration of 10%.

CCRF-CEM = experiment: NCI60 anti-cancer screening; settings: for GI50 / CC50: Homo sapiens; for CC50: read-out: LC 50%; for GI 100%: Leukemia
[3] = system: BJ-derived cell lines (BJ-TERT/LT/ST/RAS^V12 cells); experiment: Vi-Cell analysis (trypan blue exclusion); type: cell-based, human; settings: 24 hours
Description: 200,000 cells were seeded in 6-well plates and treated with the indicated amount of 2-fold dilution series concentration of a candidate compound in 2 mL BJ growth medium. After 24 hours, cells were released with trypsin/EDTA, harvested in 1.1 mL growth medium, and transferred to a Vi-Cell (Beckman Coulter) disposable cup. After, trypan blue staining, 100 images of sample were taken and analysis of the images was carried out automatically by a Vi-Cell cell viability analyzer (Beckman Coulter).

ACHN = experiment: NCI60 anti-cancer screening
OVCAR-3 = experiment: cells; settings: Homo sapiens
MDA-MB-435 = experiment: NCI60 anti-cancer screening
T-47D = experiment: NCI60 anti-cancer screening
PC-3 = experiment: NCI60 anti-cancer screening
COLO 205 = experiment: NCI60 anti-cancer screening
UACC-257 = experiment: NCI60 anti-cancer screening
RXF393 = experiment: NCI60 anti-cancer screening
TK-10 = experiment: NCI60 anti-cancer screening
SF-539 = experiment: NCI60 anti-cancer screening
NCI-H23 = experiment: NCI60 anti-cancer screening

Compound: COCCOC(=O)C1=C(C)NC2=C(C(=O)CC(c3ccc(Cl)cc3)C2)C1c1ccccc1F (stereo not drawn) [Compound 3]
- GI50 (MOLT-4): 8.39 µM
- CC50 (MOLT-4): > 10 µM
- GI 100% (MOLT-4): >10 µM
- biologically active compounds that suppress compound-induced cell death [1]: anti-oxidants (GSH, BHT, Vit. E), iron chelators (L-mim, DFOM), and a protein synthesis inhibitor (cycloheximide)
- effect of MEK1/2 inhibitor (U0126) on compound-induced cell death [1]: completely blocked
- GI50 (SNB-75): 9.61 µM
- CC50 (SNB-75): > 10 µM
- GI 100% (SNB-75): >10 µM
- GI50 (SR): 7.15 µM
- CC50 (SR): > 10 µM
- GI 100% (SR): >10 µM
- effect of iron chelators on compound activity / induced cell death [2]: significantly inhibited
- GI50 (CCRF-CEM): 7.95 µM
- CC50 (CCRF-CEM): > 10 µM
- GI 100% (CCRF-CEM): >10 µM

Compound: C=C1CCC2C(C)(C)CCC[C@]2(C)C1CC/C(C)=C\CC/C(C)=N/NC(N)=S (stereo partly drawn) [Compound 36]
- potency and selectivity by trypan blue exclusion (in words) [3]: confirmed the growth inhibitory potency and selectivity
- GI50 (MOLT-4): 0.0773 µM
- CC50 (MOLT-4): 7.39 µM
- GI 100% (MOLT-4): 1.1 µM
- GI50 (ACHN; Homo sapiens): 366 nM
- CC50 (ACHN; Homo sapiens, read-out: LC 50%): 3.78 µM
- GI 100% (ACHN; Renal Cancer): 1.43 µM
- biologically active compounds that suppress compound-induced cell death [1]: iron chelators (L-Mim and DFOM) and a protein synthesis inhibitor (cycloheximide) were effective
- effect of MEK1/2 inhibitor (U0126) on compound-induced cell death [1]: inability of MEK1/2 inhibitors to suppress
- GI50 (OVCAR-3; OVCAR-3): 204 nM
- CC50 (OVCAR-3; OVCAR-3, read-out: LC 50%): 4.2 µM
- GI50 (MDA-MB-435; Homo sapiens, MDA-MB-435): 175 nM
- CC50 (MDA-MB-435; Homo sapiens, MDA-MB-435, read-out: LC 50%): 3000 nM
- GI 100% (MDA-MB-435; MDA-MB-435, Breast Cancer): 0.781 µM
- GI50 (T-47D; Homo sapiens, T47D): 701 nM
- CC50 (T-47D; Homo sapiens, T47D, read-out: LC 50%): > 10 µM
- GI 100% (T-47D; T-47D, Breast Cancer): 3.21 µM
- GI50 (PC-3; Homo sapiens, PC-3): 548 nM
- CC50 (PC-3; Homo sapiens, PC-3, read-out: LC 50%): 4.26 µM
- GI 100% (PC-3; PC-3, Prostate Cancer): 1.82 µM
- GI50 (SNB-75): 0.372 µM
- CC50 (SNB-75): 4.3 µM
- GI 100% (SNB-75): 1.26 µM
- GI 100% (COLO 205; COLO 205, Colon Cancer): 0.451 µM
- GI50 (COLO 205; Homo sapiens, COLO 205): 184 nM
- CC50 (COLO 205; Homo sapiens, COLO 205, read-out: LC 50%): 1460 nM
- GI50 (SR): 1.32 µM
- CC50 (SR): 8.78 µM
- GI 100% (SR): 3.4 µM
- GI50 (UACC-257; Homo sapiens, UACC-257): 1260 nM
- CC50 (UACC-257; Homo sapiens, UACC-257, read-out: LC 50%): 6.99 µM
- GI 100% (UACC-257; UACC-257, Melanoma): 2.97 µM
- GI50 (RXF393; Homo sapiens, RXF 393): 181 nM
- CC50 (RXF393; Homo sapiens, RXF 393, read-out: LC 50%): 2490 nM
- GI 100% (RXF393; RXF393, Renal Cancer): 0.485 µM
- effect of iron chelators on compound activity / induced cell death [2]: significantly inhibited
- GI50 (TK-10; Homo sapiens, TK-10): 296 nM
- CC50 (TK-10; Homo sapiens, TK-10, read-out: LC 50%): 3.47 µM
- GI 100% (TK-10; TK-10, Renal Cancer): 1.08 µM
- GI50 (CCRF-CEM): 0.165 µM
- CC50 (CCRF-CEM): 5.57 µM
- GI 100% (CCRF-CEM): 0.705 µM
- GI50 (SF-539; Homo sapiens, SF-539): 191 nM
- CC50 (SF-539; Homo sapiens, SF-539, read-out: LC 50%): 638 nM
- GI 100% (SF-539; SF-539, CNS Cancer): 0.349 µM
- GI50 (NCI-H23; Homo sapiens, NCI-H23): 440 nM
- CC50 (NCI-H23; Homo sapiens, NCI-H23, read-out: LC 50%): 4.23 µM
- GI 100% (NCI-H23; NCI-H23, Non-small cell lung carcinoma): 1.65 µM
